Measured values: patent US9546157B2, “Asymmetric piperidinyl-substituted ureas as medicines” (Helsinn Healthcare SA, priority 2014, dated 2017)

Columns and labels:
GHSR1a [1] = biological target: T1, GHSR1a (Homo sapiens, UniProt Q92847); assay: Calcium FLIPR assay, GHSR-1a antagonism (reduction of ghrelin response); type: cell-based; details: HEK293/GHSR1a cells, ghrelin 10 nM
T1 construct: expressed in transfected cells; host or cells: HEK293
Protocol: (§1) The intracellular calcium assay was carried out in a 384-well format FLIPR™ (Molecular Device) HEK293/GHSR1a cell line. Cells were seeded 24 hr prior to the experiments at an optimal density per well. Preincubation with selected calcium dye lasted for 30-60 min at room temperature or 37° C. Test compounds, dissolved in DMSO, were added at the appropriate time and incubated for 15 min followed by the addition of ghrelin with FlexStation or FLIPR. Relative fluorescence was monitored by the FLIPR™ Molecular Device. EC50 and IC50 values were estimated from dose-response data using GraphPad Prism software. To check for GHSR-1a agonism the compound was added at t=20 sec. and the calcium response was followed for 2 minutes. To check for GHSR-1a antagonism the compound and Ghrelin (10 nM) were added to the cells at t=20 sec. and the calcium response was measured for 2 minutes. The potency of the antagonist was calculated by its ability to reduce the ghrelin response. Dose-response curves were made for relevant antagonists.

GHSR1a [2] = biological target: T1, GHSR1a; assay: Calcium FLIPR assay, GHSR-1a agonism; type: cell-based; set-up: Emax: unit not given here; details: HEK293/GHSR1a cells
Protocol: as §1

T1 sequence (Q92847 whole entry): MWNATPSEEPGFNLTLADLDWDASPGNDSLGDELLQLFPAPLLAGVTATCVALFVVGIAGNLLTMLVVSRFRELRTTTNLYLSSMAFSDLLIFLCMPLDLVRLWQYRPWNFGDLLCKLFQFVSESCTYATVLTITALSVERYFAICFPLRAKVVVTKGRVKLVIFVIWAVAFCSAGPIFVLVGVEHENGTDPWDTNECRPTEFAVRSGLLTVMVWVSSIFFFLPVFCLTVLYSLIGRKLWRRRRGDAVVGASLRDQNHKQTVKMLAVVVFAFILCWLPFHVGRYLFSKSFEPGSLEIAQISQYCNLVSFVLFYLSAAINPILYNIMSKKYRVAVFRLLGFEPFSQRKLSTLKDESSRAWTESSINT

Row | IC50 (GHSR1a [1]) [nM] | EC50 (GHSR1a [2]) [nM] | Emax (GHSR1a [2]) | SMILES
1 | 75 | 124 | 1987 | CC(NC(=O)N(C)C1CCN(C)CC1)c1ccc(-c2cccs2)c(Cl)c1Cl (single isomer, unassigned) [Compound H0564, 3-(1-(2,3-dichloro-4-(thiophen-2-yl)phenyl)ethyl)-1-methyl-1-(1-methylpiperidin-4-yl)urea]
2 | 95 | 420 | 4210 | CN1CCC(N(O)C(=O)NC(CC2CC2)c2ccc(-c3cnccn3)c(Cl)c2Cl)CC1 (single isomer, unassigned) [Compound H0781, 3-(2-cyclopropyl-1-(2,3-dichloro-4-(pyrazin-2-yl)phenyl)ethyl)-1-hydroxy-1-(1-methylpiperidin-4-yl)urea]
3 | 2200 | > 30000 | – | CC[C@@H](NC(=O)N(C)C1CCN(C)CC1)c1ccc(-c2cnccn2)c(Cl)c1Cl (single isomer, unassigned) [Compound H0859]
4 | 189 | > 30000 | – | C[C@H](NC(=O)N(C)C1CCN(C)C1)c1ccc(-c2cnccn2)c(Cl)c1Cl (single isomer, unassigned) [Compound H0861]
5 | 495 | > 30000 | – | CC(NC(=O)N(C)C1CCN(C)CC1)c1ccc(-c2cccc3c2cnn3C)c(Cl)c1Cl (centres unmarked) [Compound H0512, 3-(1-(2,3-dichloro-4-(1-methyl-1H-indazol-4-yl)phenyl)ethyl)-1-methyl-1-(1-methylpiperidin-4-yl)urea]
6 | 544 | > 30000 | – | CC(NC(=O)N(C)C1CCN(C)CC1)c1ccc(-c2cccc3[nH]ncc23)c(Cl)c1Cl (centres unmarked) [Compound H0513, 3-(1-(2,3-dichloro-4-(1H-indazol-4-yl)phenyl)ethyl)-1-methyl-1-(1-methylpiperidin-4-yl)urea]
7 | 40 | 885 | – | CC(NC(=O)N(C)C1CCN(C)CC1)c1ccc(-c2ccc3[nH]ccc3c2)c(Cl)c1Cl (centres unmarked) [Compound H0515, 3-(1-(2,3-dichloro-4-(1H-indol-5-yl)phenyl)ethyl)-1-methyl-1-(1-methylpiperidin-4-yl)urea]
8 | 19 | > 30000 | – | CC(NC(=O)N(C)C1CCN(C)CC1)c1ccc(-c2ccc(N)cc2)c(Cl)c1Cl (centres unmarked) [Compound H0517, 3-(1-(4′-amino-2,3-dichloro-[1,1′-biphenyl]-4-yl)ethyl)-1-methyl-1-(1-methylpiperidin-4-yl)urea]
9 | 841 | > 30000 | – | CC(NC(=O)N(C)C1CCN(C)CC1)c1ccc(-c2ccc(N(C)C)cc2)c(Cl)c1Cl (centres unmarked) [Compound H0518, 3-(1-(2,3-dichloro-4′-(dimethylamino)-[1,1′-biphenyl]-4-yl)ethyl)-1-methyl-1-(1-methylpiperidin-4-yl)urea]
10 | 202 | 394 | – | CC(NC(=O)N(C)C1CCN(C)CC1)c1ccc(C2=CCCCC2)c(Cl)c1Cl (centres unmarked) [Compound H0520, 3-(1-(2,3-dichloro-2′,3′,4′,5′-tetrahydro-[1,1′-biphenyl]-4-yl)ethyl)-1-methyl-1-(1-methylpiperidin-4-yl)urea]
11 | 20 | 19 | – | COC(=O)c1ccc(C(C)NC(=O)N(C)C2CCN(C)CC2)c(Cl)c1Cl (centres unmarked) [Compound H0521]
12 | 57 | > 30000 | – | CC(NC(=O)N(C)C1CCN(C)C1)c1ccc(-c2cccnc2)c(Cl)c1Cl (centres unmarked) [Compound H0526, 3-(1-(2,3-dichloro-4-(pyridin-3-yl)phenyl)ethyl)-1-methyl-1-(1-methylpyrrolidin-3-yl)urea]
13 | 34 | 4 | – | CC(NC(=O)N(C)C1CCN(C)CC1)c1ccc(-c2ccc[nH]2)c(Cl)c1Cl (centres unmarked) [Compound H0535, 3-(1-(2,3-dichloro-4-(1H-pyrrol-2-yl)phenyl)ethyl)-1-methyl-1-(1-methylpiperidin-4-yl)urea]
14 | 9 | > 30000 | – | COC(=O)c1ccc(CN(C(=O)NC(C)c2ccc(-c3cccnc3)c(Cl)c2Cl)C2CCN(C)CC2)cc1 (centres unmarked) [Compound H0539, methyl 4-((3-(1-(2,3-dichloro-4-(pyridin-3-yl)phenyl)ethyl)-1-(1-methylpiperidin-4-yl)ureido)methyl)benzoate]
15 | 154 | > 30000 | – | CC(NC(=O)N(C)C1CCN(C)CC1)c1ccc(-c2cn[nH]c2)c(Cl)c1F (centres unmarked) [Compound H0571, 3-(1-(3-chloro-2-fluoro-4-(1H-pyrazol-4-yl)phenyl)ethyl)-1-methyl-1-(1-methylpiperidin-4-yl)urea]
16 | 180 | > 30000 | – | CC(NC(=O)N(C)C1CCN(C)CC1)c1ccc(-c2cn[nH]c2)c2ccccc12 (centres unmarked) [Compound H0576, 3-(1-(4-(1H-pyrazol-4-yl)naphthalen-1-yl)ethyl)-1-methyl-1-(1-methylpiperidin-4-yl)urea]

Row | IC50 (GHSR1a [1]) [nM] | EC50 (GHSR1a [2]) [nM] | Emax (GHSR1a [2]) | SMILES
17 | 233 | > 30000 | – | CC(NC(=O)N(C)C1CCN(C)CC1)c1ccc(-c2cccnc2)c2ccccc12 (centres unmarked) [Compound H0577, 1-methyl-1-(1-methylpiperidin-4-yl)-3-(1-(4-(pyridin-3-yl)naphthalen-1-yl)ethyl)urea]
18 | 490 | > 30000 | – | CC(NC(=O)N(C)C1CCN(C)CC1)c1ccc(-c2ccncc2)c2ccccc12 (centres unmarked) [Compound H0578, 1-methyl-1-(1-methylpiperidin-4-yl)-3-(1-(4-(pyridin-4-yl)naphthalen-1-yl)ethyl)urea]
19 | – | > 30000 | – | CC(NC(=O)N(C)C1CCN(C)CC1)c1ccc(-c2cncnc2)c2ccccc12 (centres unmarked) [Compound H0579, 1-methyl-1-(1-methylpiperidin-4-yl)-3-(1-(4-(pyrimidin-5-yl)naphthalen-1-yl)ethyl)urea]
20 | 1100 | > 30000 | – | CC(NC(=O)N(C)C1CCCCC1)c1ccc(-c2cncnc2)c(Cl)c1Cl (centres unmarked) [Compound H0584, 1-cyclohexyl-3-(1-(2,3-dichloro-4-(pyrimidin-5-yl)phenyl)ethyl)-1-methylurea]
21 | 4200 | 63000 | – | CC(NC(=O)N(C)C1CCOCC1)c1ccc(-c2cncnc2)c(Cl)c1Cl (centres unmarked) [Compound H0586, 3-(1-(2,3-dichloro-4-(pyrimidin-5-yl)phenyl)ethyl)-1-methyl-1-(tetrahydro-2H-pyran-4-yl)urea]
22 | > 30000 | > 30000 | – | CC(NC(=O)N(C)C1CCC(F)(F)CC1)c1ccc(-c2cncnc2)c(Cl)c1Cl (centres unmarked) [Compound H0587, 3-(1-(2,3-dichloro-4-(pyrimidin-5-yl)phenyl)ethyl)-1-(4,4-difluorocyclohexyl)-1-methylurea]
23 | > 30000 | > 30000 | – | CC(=O)N1CCC(N(C)C(=O)NC(C)c2ccc(-c3cncnc3)c(Cl)c2Cl)CC1 (centres unmarked) [Compound H0588, 1-(1-acetylpiperidin-4-yl)-3-(1-(2,3-dichloro-4-(pyrimidin-5-yl)phenyl)ethyl)-1-methylurea]
24 | 28 | 43 | – | CC(NC(=O)N(C)C1CCN(C)CC1)c1ccc(-c2nnco2)c(Cl)c1Cl (centres unmarked) [Compound H0595, 3-(1-(2,3-dichloro-4-(1,3,4-oxadiazol-2-yl)phenyl)ethyl)-1-methyl-1-(1-methylpiperidin-4-yl)urea]
25 | 63 | 271 | – | CC(NC(=O)N(C)C1CCN(C)CC1)c1ccc(-c2ccoc2)c2ccccc12 (centres unmarked) [Compound H0598, 3-(1-(4-(furan-3-yl)naphthalen-1-yl)ethyl)-1-methyl-1-(1-methylpiperidin-\4-yl)urea]
26 | 212 | 478 | – | CC(NC(=O)N(C)C1CCN(C)CC1)c1ccc(-c2cnc[nH]2)c2ccccc12 (centres unmarked) [Compound H0599, 3-(1-(4-(1H-imidazol-5-yl)naphthalen-1-yl)ethyl)-1-methyl-1-(1-methylpiperidin-4-yl)urea]
27 | 8 | > 30000 | – | CC(NC(=O)N(C)C1CCN(C)CC1)c1ccc(C#C[Si](C)(C)C)c(Cl)c1Cl (centres unmarked) [Compound H0602, 3-(1-(2,3-dichloro-4-((trimethylsilyl)ethynyl)phenyl)ethyl)-1-methyl-1-(1-methylpiperidin-4-yl)urea]
28 | 31 | 96 | 1833 | CC(NC(=O)N(C)C1CCN(C)CC1)c1ccc(-c2cc(F)cc(F)c2)c(Cl)c1Cl (centres unmarked) [Compound H0605, 3-(1-(2,3-dichloro-3′,5′-difluoro[1,1′-biphenyl]-4-yl)ethyl)-1-methyl-1-(1-methylpiperidin-4-yl)urea]
29 | 24 | 31 | 2336 | COc1cccc(-c2ccc(C(C)NC(=O)N(C)C3CCN(C)CC3)c(Cl)c2Cl)c1 (centres unmarked) [Compound H0606, 3-(1-(2,3-dichloro-3′-methoxy-[1,1′-biphenyl]-4-yl)ethyl)-1-methyl-1-(1-methylpiperidin-4-yl)urea]
30 | 69 | 422 | – | CC(C)Oc1ccc(-c2ccc(C(C)NC(=O)N(C)C3CCN(C)CC3)c(Cl)c2Cl)cn1 (centres unmarked) [Compound H0608, 3-(1-(2,3-dichloro-4-(6-isopropoxypyridin-3-yl)phenyl)ethyl)-1-methyl-1-(1-methylpiperidin-4-yl)urea]
31 | – | 5 | 4961 | COc1ccc(C(C#N)NC(=O)N(C)C2CCN(C)CC2)c(Cl)c1Cl (centres unmarked) [Compound H0669, 3-(cyano(2,3-dichloro-4-methoxyphenyl)methyl)-1-methyl-1-(1-methylpiperidin-4-yl)urea]
32 | 429 | – | – | COC(=O)c1ccc(C#Cc2ccc(C(C)NC(=O)N(C)C3CCN(C)CC3)c(Cl)c2Cl)s1 (centres unmarked) [Compound H0779]

Row | SMILES | IC50 (GHSR1a [1]) [nM] | EC50 (GHSR1a [2]) [nM] | Emax (GHSR1a [2])
33 | CC(NC(=O)N(C)C1CCN(C)CC1)c1ccc(C#N)c(Cl)c1Cl (centres unmarked) [Compound H0523, 3-(1-(2,3-dichloro-4-cyanophenyl)ethyl)-1-methyl-1-(1-methylpiperidin-4-yl)urea] | 668 | > 30000 | –
